The text below walks through data of patent US20240246908A1 (ORION CORPORATION, priority 2021, published 2024).

The test system of the assay is YAP-TEAD. Put plainly: TEAD inhibition, Hippo Pathway TEAD Reporter MCF-7 luciferase assay. Format: cell-based. Conditions: Homo sapiens, MCF7, 24 h, Hippo Pathway TEAD Reporter MCF-7 cells, luciferase activity after 24 h; read-out: IC50 of the test compounds on YAP-TEAD inhibition (Group). The method, boiled down:
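IC50 derived from ONE-Glo luciferase luminescence after 24 h compound exposure (11 concentrations in quadruplicate, 0.1% DMSO control). Reporter: MCF-7 line expressing firefly luciferase under TEAD elements, constitutively activated by nuclear YAP1.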
With `COc1ccc(Oc2cnc(F)c(C)c2)cc1NC(=O)C1CCC(=O)N1` (centres unmarked) [Compound 262, N-(5-((6-Fluoro-5-methylpyridin-3-yl)oxy)-2-methoxyphenyl)-5-oxopyrrolidine-2-carboxamide], the IC50 was 301 to 2000 nM. Next, `COc1ccc(Oc2cnc(F)c(C)c2)cc1NC(=O)[C@H]1CCC(=O)N1C` [Compound 263, (R)—N-(5-((6-fluoro-5-methylpyridin-3-yl)oxy)-2-methoxyphenyl)-1-methyl-5-oxopyrrolidine-2-carboxamide]: 50 to 300 nM. On to `COc1cc(NC(=O)C2CCC(=O)N2C)cc(OC2CCC(C(F)(F)F)CC2)c1` (centres unmarked) [Compound 264], for which the IC50 is under 50 nM. Then `COc1ccc(OC2CCC(C(F)(F)F)CC2)cc1NC(=O)[C@H]1CCC(=O)N1C` (stereo partly drawn) [Compound 265, (R)—N-(2-Methoxy-5-((4-(trifluoromethyl)cyclohexyl)oxy)phenyl)-1-methyl-5-oxopyrrolidine-2-carboxamide], with under 50 nM. Then `COc1ccc(O[C@@H]2CCC[C@H](C(F)(F)F)C2)cc1NC(=O)C1CCC(=O)N1` (stereo partly drawn) [Compound 266, N-(2-Methoxy-5-(((1R,3S)-3-(trifluoromethyl)cyclohexyl)oxy)phenyl)-5-oxo-pyrrolidine-2-carboxamide], with 50 to 300 nM; and `COc1ccc(O[C@H]2CCC[C@H](C(F)(F)F)C2)cc1NC(=O)C1CCC(=O)N1` (stereo partly drawn) [Compound 267, N-(2-Methoxy-5-(((1S,3S)-3-(trifluoromethyl)cyclohexyl)oxy)phenyl)-5-oxo-pyrrolidine-2-carboxamide], with 50 to 300 nM; and `COc1ccc(O[C@@H]2CCC[C@H](C(F)(F)F)C2)cc1NC(=O)[C@H]1CCC(=O)N1C` [Compound 268, (R)—N-(2-Methoxy-5-(((1R,3S)-3-(trifluoromethyl)cyclohexyl)oxy)phenyl)-1-methyl-5-oxopyrrolidine-2-carboxamide], with 50 to 300 nM. Then `COc1ccc(O[C@H]2CCC[C@H](C(F)(F)F)C2)cc1NC(=O)[C@H]1CCC(=O)N1C` [Compound 269, (R)—N-(2-Methoxy-5-(((1S,3S)-3-(trifluoromethyl)cyclohexyl)oxy)phenyl)-1-methyl-5-oxopyrrolidine-2-carboxamide], with 50 to 300 nM; and `CN1C(=O)CCC1C(=O)Nc1cc(OC2CCC(C(F)(F)F)CC2)ccc1F` (centres unmarked) [Compound 270, N-(2-Fluoro-5-((4-(trifluoromethyl)cyclohexyl)oxy)phenyl)-1-methyl-5-oxo-pyrrolidine-2-carboxamide], with 50 to 300 nM. For `COc1ccc(NC(=O)C2CCC(=O)N2C)cc1O[C@H]1CC[C@H](C(F)(F)F)CC1` (stereo partly drawn) [Compound 271, (R)—N-(4-methoxy-3-(((1r,4R)-4-(trifluoromethyl)cyclohexyl)oxy)phenyl)-1-methyl-5-oxopyrrolidine-2-carboxamide], the IC50 lay within 50 to 300 nM. Regarding `COc1ccc(NC(=O)[C@@H]2CCC(=O)N2C)cc1O[C@H]1CC[C@@H](C(F)(F)F)CC1` [Compound 272, (R)—N-(4-Methoxy-3-(((1s,4S)-4-(trifluoromethyl)cyclohexyl)oxy)phenyl)-1-methyl-5-oxopyrrolidine-2-carboxamide], the IC50 was in the range of 301 to 2000 nM. As for `COc1cc(NC(=O)C2CCC(=O)N2C)cc(Oc2cccc(C(F)(F)F)c2)c1` (centres unmarked) [Compound 273, N-(3-Methoxy-5-(3-(trifluoromethyl)phenoxy)phenyl)-1-methyl-5-oxo-pyrrolidine-2-carboxamide], the IC50 fell in the range of 50 to 300 nM. Next, `COc1cc(NC(=O)C2CCC(=O)N2C)cc(Oc2ccc(Cl)c(C(F)(F)F)c2)c1` (centres unmarked) [Compound 274, N-(3-(4-Chloro-3-(trifluoromethyl)phenoxy)-5-methoxyphenyl)-1-methyl-5-oxopyrrolidine-2-carboxamide]: 50 to 300 nM; `COc1ccc(Oc2ccc(C(F)(F)F)cn2)cc1NC(=O)C1CCC(=O)N1C` (centres unmarked) [Compound 276, N-(2-methoxy-5-((5-(trifluoromethyl)pyridin-2-yl)oxy)phenyl)-1-methyl-5-oxopyrrolidine-2-carboxamide]: under 50 nM; `COc1cc(NC(=O)C2CCC(=O)N2C)cc(Oc2ccc(C(F)(F)F)cn2)c1` (centres unmarked) [Compound 277, N-(3-Methoxy-5-((5-(trifluoromethyl)pyridin-2-yl)oxy)phenyl)-1-methyl-5-oxopyrrolidine-2-carboxamide]: 50 to 300 nM.

For the compound `COc1cc(NC(=O)[C@H]2CCC(=O)N2C)cc(Oc2ccc(C(F)(F)F)cc2)c1` [Compound 278, (R)—N-(3-Methoxy-5-(4-(trifluoromethyl)phenoxy)phenyl)-1-methyl-5-oxo-pyrrolidine-2-carboxamide], the IC50 is under 50 nM. Then `COc1cc(NC(=O)C2CCC(=O)N2C)cc(Oc2ccc(C(F)(F)F)cc2)c1` (centres unmarked) [Compound 279, N-(3-Methoxy-5-(4-(trifluoromethyl)phenoxy)phenyl)-1-methyl-5-oxo-pyrrolidine-2-carboxamide], with under 50 nM. As to `CN1C(=O)CC[C@@H]1C(=O)Nc1cc(Oc2ccc(C(F)(F)F)cn2)cc2cccnc12` [Compound 281, (R)-1-Methyl-5-oxo-N-(6-((5-(trifluoromethyl)pyridin-2-yl)oxy)quinolin-8-yl)pyrrolidine-2-carboxamide], the IC50 lay in the range of 50 to 300 nM. On to `COc1cc(NC(=O)[C@H]2CCC(=O)N2C)cc(OC2CCC(C(F)(F)F)CC2)c1` (some centres unmarked) [Compound 282], for which the IC50 is under 50 nM. For `COc1ccc(Oc2ccc(C(F)(F)F)cn2)cc1NC(=O)[C@H]1CCC(=O)N1C` [Compound 283, (R)—N-(2-Methoxy-5-((5-(trifluoromethyl)pyridin-2-yl)oxy)phenyl)-1-methyl-5-oxopyrrolidine-2-carboxamide], the IC50 is under 50 nM. Next, `COc1cc(NC(=O)C2CCC(=O)N2C)cc(Oc2ccc(F)c(F)c2)c1` (centres unmarked) [Compound 284, N-(3-(3,4-Difluorophenoxy)-5-methoxyphenyl)-1-methyl-5-oxopyrrolidine-2-carboxamide]: 50 to 300 nM. In the case of `COc1cc(NC(=O)[C@H]2CCC(=O)N2C)cc(Oc2ccc(F)c(F)c2)c1` [Compound 285, (R)—N-(3-(3,4-Difluorophenoxy)-5-methoxyphenyl)-1-methyl-5-oxopyrrolidine-2-carboxamide], the IC50 lay in the range of 50 to 300 nM. Next, `COc1ccc(OC2CCCCC2)cc1NC(=O)C1CCC(=O)N1C` (centres unmarked) [Compound 286, N-(5-(Cyclohexyloxy)-2-methoxyphenyl)-1-methyl-5-oxopyrrolidine-2-carboxamide]: 50 to 300 nM; `COc1ccc(OC2C=CCCC2)cc1NC(=O)C1CCC(=O)N1C` (centres unmarked) [Compound 287, N-(5-(Cyclohex-2-en-1-yloxy)-2-methoxyphenyl)-1-methyl-5-oxopyrrolidine-2-carboxamide]: 301 to 2000 nM; `COc1ccc(Oc2ccc(Cl)cn2)cc1NC(=O)[C@@H]1CCC(=O)N1C` [Compound 288, (S)—N-(5-((5-Chloropyridin-2-yl)oxy)-2-methoxyphenyl)-1-methyl-5-oxo-pyrrolidine-2-carboxamide]: 50 to 300 nM. Then `COc1ccc(Oc2cccc(C(F)(F)F)c2)cc1NC(=O)C1CN(C(C)=O)C1` [Compound 289, 1-Acetyl-N-(2-methoxy-5-(3-(trifluoromethyl)phenoxy)phenyl)azetidine-3-carboxamide], with 301 to 2000 nM.

As a reminder, the IC50 is the midpoint of a concentration-inhibition curve.
